Literature values, collected in patent publication US20120322745A1, “OPTIMIZED METHOD FOR OBTAINING ACE ACTIVITY INHIBITORY PEPTIDES FROM WHEY, ACE INHIBITORY PEPTIDES AND FOOD COMPRISING THEM” (QUEIZUAR ,S.L., priority 2011, published 2012).

biological target: angiotensin converting enzyme (ACE); settings: ACE inhibitory peptides obtained by enzymatic hydrolysis of whey proteins

| Substance | IC50 |
| --- | --- |
| VLDTDYK [β-Lg f(94-100)] | 946 µM |
| ALKAWSVAR [BSA f(208-216)] | 3 µM |
| β-Lg f(81-83): ACE inhibitory peptide, sequence VFK, from whey protein hydrolysis with trypsin (UniProt P02754 97-99, looked up, fragment) | 1030 µM |
| β-Lg f(58-61): ACE inhibitory peptide, sequence LKQW, from whey protein hydrolysis with thermolysin | 34.7 µM |
| ALPMHIR [β-Lg (f 142-148)] | 42.6 µM |
| CMENSA [β-Lg f(106-111)] | 788 µM |
| ALPMH (UniProt P02754 158-162, looked up, fragment) [β-Lg f(142-146)] | 521 µM |
| β-Lg f(22-25): ACE inhibitory peptide, sequence LAMA, from whey protein hydrolysis with trypsin (UniProt P02754 38-41, looked up, fragment) | 556 µM |
| β-Lg f(78-80): ACE inhibitory peptide, sequence IPA, from whey protein hydrolysis with proteinase k (UniProt P02754 94-96, looked up, fragment) | 141 µM |
| β-Lg (f 122-125): ACE inhibitory peptide, sequence LVRT, from whey protein hydrolysis with thermolysin (UniProt P02754 138-141, looked up, fragment) | 2470 µM |
| β-Lg (f 102-105): ACE inhibitory peptide, sequence YLLF, from hydrolysis with pepsin, trypsin, chemotrypsin (UniProt P02754 118-121, looked up, fragment) | 172 µM |
| LDAQSAPLR [β-Lg f(32-40)] | 635 µM |
| β-Lg f(103-105): ACE inhibitory peptide, sequence LLF, from whey protein hydrolysis with thermolysin (UniProt P02754 119-121, looked up, fragment) | 79.8 µM |
| VGINYWLAHK [α-La f(99-108)] | 327 µM |
| β-Lg f(15-19): ACE inhibitory peptide, sequence VAGT, from hydrolysis with pepsin, trypsin, chemotrypsin | 1050 µM |
| WLAHK [α-La f(104-108)] | 77 µM |
| LKPTPEGN [β-Lg (f 46-53)] | > 2700 µM |
